The source of these data is patent US5258382A, “Tetrahydropyrrolo[1,2-a]pyrazine-4-spiro-3'-pyrrolidine derivatives, processes for the preparation thereof and pharmaceutical compositions containing the same” (Dainippon Pharmaceutical Co., Ltd., priority 1991, dated 1993).

Read-outs that look alike come from different tables or passages of the source.

One data set concerns sorbitol accumulation. Briefly: Inhibitory activity on sorbitol accumulation (in vivo), sciatic nerve of streptozotocin-diabetic rats. On the set-up: species or system Male Wistar rats. To be noted: for Inhibition (%) of sorbitol accumulation: oral, once a day for 5 days, sciatic nerve, 4 hours after final administration; for inhibitory activity on sorbitol accumulation relative to (±)-sorbinil: compared with (±)-sorbinil; for duration of effect: rat, in vivo. Here is the method: Male Wistar rats (200-250 g) were used in groups of 4 animals each. The rats were made diabetic by single i.v. injection of streptozotocin (40 mg/kg) freshly dissolved in physiological saline.
From one week after the induction of diabetes, the rats were orally given test compounds, suspended in 0.5% tragacanth solution, once a day for 5 days. […] The activity of test compounds was expressed as the inhibition percent of sorbitol accumulation ar given doses, which was calculated according to the following equation.
Inhibition %=(S-T)/(S-N)×100
S: Sorbitol content in sciatic nerve from diabetic control
T: Sorbitol content in sciatic nerve from diabetic rats given test compounds
N: Sorbitol content in sciatic nerve from normal rats.

The next data set addresses T1, Aldose reductase (Sus scrofa, UniProt P80276).
T1 construct: Lenses isolated from porcine eyes (Tokyo Sibaura Zouki Co., Ltd., Japan) were homogenized; tissue Tokyo Sibaura Zouki Co., Ltd., Japan (porcine eyes); host or cells: porcine lens
Briefly: Aldose reductase inhibitory activity (in vitro). Type of data set: biochemical, porcine. Here is the method: Lenses isolated from porcine eyes (Tokyo Sibaura Zouki Co., Ltd., Japan) were homogenized with 5 mM phosphate buffer (pH 7.4) containing 2 mM mercaptoethanol, and centrifuged at 10,200 g for 10 minutes. The supernatant was sequentially precipitated with ammonium sulfate at 30%, 40% and 60% saturation. The precipitate at 60% saturation was dissolved in a homogenizing buffer and used as a crude enzyme preparation. The unit of enzyme activity was defined as the amount of enzyme which oxidized 1 μmoles of NADPH/minute under the following assay condition.
The standard reaction mixture was composed of 100 mM phosphate buffer (pH 6.5), 0.2 mM NADPH, 1.5 mM D,L-glyceraldehyde, 0.4M lithium sulfate, enzyme solution (7.0 mU/ml) and test compounds at various concentrations. The reaction mixture was incubated at 37° C., and the decrease in absorbance at 340 nm was monitored by a spectrophotometer (Hitachi 150-20). The enzyme activity was calculated based upon the rate of decrease in the absorbance over a period of 1 minute from 1 minute after the onset of the enzyme reaction.

The next data set can be described thus: Acute toxicity, oral. As to conditions: 1 g/kg oral, suspended in 0.5% tragacanth; observed for 7 days. From the text: Male ddY mice (18-25 g) were used in groups of 5 animals each. The compounds of Examples 1 (21) and 22, suspended in 0.5% tragacanth solution, were orally administered at a dose of 1 g/kg to the animals.
[1] abbreviates: crude enzyme from porcine lenses, D,L-glyceraldehyde 1.5 mM, NADPH 0.2 mM, pH 6.5, 37° C., read-out: IC50 (aldose reductase inhibitory activity).

As for `O=C1NC(=O)C2(CCOc3ccc(F)cc32)N1` (racemic) [(±)-Sorbinil, 6-fluoro-2,3-dihydrospiro[4H-1-benzopyran-4,4'-imidazolidine]-2',5'-dione, reference compound], the entries for the “Inhibition (%) of sorbitol accumulation” value with sorbitol accumulation (3.0 mg/kg/day) and in the data set with sorbitol accumulation (30 mg/kg/day) were 60.7% and 106.9%, respectively.
By IC50 is commonly meant the concentration that gives 50% inhibition. With `O=C1CC2(C(=O)N1)C(=O)N(Cc1ccc(Br)cc1F)C(=O)c1cccn12` (single isomer, unassigned) [Example 22, an enantiomer of 2-(4-bromo-2-fluorobenzyl)-[1,2,3,4-tetrahydropyrrolo[1,2-a]pyrazine-4-spiro-3'-pyrrolidine]-1,2',3,5'-tetrone], inhibition at Aldose reductase was half-maximal at 39 nM (IC50). Further, the “Inhibition (%) of sorbitol accumulation” value in the data set on sorbitol accumulation (0.3 mg/kg/day) was determined as 77.6%. For the same compound, the “Inhibition (%) of sorbitol accumulation” value in the data set on sorbitol accumulation (1.0 mg/kg/day) came to 107.3%. In the data set with sorbitol accumulation, the “inhibitory activity on sorbitol accumulation relative to (±)-sorbinil” value is given as “equipotent to or more potent than (±)-sorbinil” and the duration of effect entry is reported as “long-lasting”. Besides, the mortality result in the data set “Acute toxicity, oral” is listed as “None of the mice died during this period”.
`CC(=C\c1ccccc1)/C=C1/SC(=S)N(CC(=O)O)C1=O` [Epalrestat, (E,E)-5-(2-methyl-3-phenyl-2-propenylidene) 4-oxo-2-thioxo-3-thiazolidineacetic acid, reference compound] yielded an IC50 at Aldose reductase of 73 nM. The “Inhibition (%) of sorbitol accumulation” value with sorbitol accumulation (200 mg/kg/day) was determined as 5.7%.
Regarding `O=C1CC2(C(=O)N1)C(=O)N(Cc1ccc(Br)cc1F)C(=O)c1cccn12` (centres unmarked) [Example 1, 2-(4-bromo-2-fluorobenzyl)-[1,2,3,4-tetrahydropyrrolo[1,2-a]pyrazine-4-spiro-3'-pyrrolidine]-1,2',3,5'-tetrone], it took 50 nM to reach half-maximal inhibition at Aldose reductase (IC50). Moreover, the “Inhibition (%) of sorbitol accumulation” value was 104.7% in the data set on sorbitol accumulation (1.0 mg/kg/day) and 114.6% in the data set on sorbitol accumulation (30 mg/kg/day). Also, the “inhibitory activity on sorbitol accumulation relative to (±)-sorbinil” value in the data set with sorbitol accumulation is on record as “equipotent to or more potent than (±)-sorbinil”. In addition, the duration of effect result with sorbitol accumulation is “long-lasting”. In addition, the mortality entry in “Acute toxicity, oral” is “None of the mice died during this period”.
For `O=C1CC2(C(=O)N1)C(=O)N(Cc1ccccc1Cl)C(=O)c1cccn12` (centres unmarked) [Example 2, 2-(2-chlorobenzyl)-[1,2,3,4-tetrahydropyrrolo[1,2-a]pyrazine-4-spiro-3'-pyrrolidine]-1,2',3,5'-tetrone], the IC50 at Aldose reductase (setting [1]) amounted to 33 nM. Besides, the “Inhibition (%) of sorbitol accumulation” value is given as 30.5% with sorbitol accumulation (3.0 mg/kg/day) and 97.1% with sorbitol accumulation (30 mg/kg/day).
As to `O=C1CC2(C(=O)N1)C(=O)N(Cc1ccccc1)C(=O)c1cccn12` (centres unmarked) [Example 3], on Aldose reductase (setting [1]), the IC50 was 99 nM. Besides, in the data set on sorbitol accumulation (30 mg/kg/day), the “Inhibition (%) of sorbitol accumulation” value is 69.1%.
Take `O=C1CC2(C(=O)N1)C(=O)N(Cc1ccccc1F)C(=O)c1cccn12` (centres unmarked) [Example 4]: the 50% inhibitory concentration (IC50) at Aldose reductase (setting [1]) worked out at 61 nM. The “Inhibition (%) of sorbitol accumulation” value in the data set with sorbitol accumulation (1.0 mg/kg/day) came to 47.2%; with sorbitol accumulation (10 mg/kg/day) it was 73.5%. Also, the “inhibitory activity on sorbitol accumulation relative to (±)-sorbinil” value with sorbitol accumulation is “equipotent to or more potent than (±)-sorbinil”.
For `O=C1CC2(C(=O)N1)C(=O)N(Cc1cccc(Cl)c1)C(=O)c1cccn12` (centres unmarked) [Example 5], the IC50 on Aldose reductase (setting [1]) was determined as 31 nM. For the same compound, the “Inhibition (%) of sorbitol accumulation” value in the data set with sorbitol accumulation (3.0 mg/kg/day) amounted to 44.2%; in the data set on sorbitol accumulation (30 mg/kg/day), 99.4%. For the same compound, the “inhibitory activity on sorbitol accumulation relative to (±)-sorbinil” value in the data set with sorbitol accumulation is listed as “equipotent to or more potent than (±)-sorbinil”.
Regarding `O=C1CC2(C(=O)N1)C(=O)N(Cc1ccc(F)cc1)C(=O)c1cccn12` (centres unmarked) [Example 6], on Aldose reductase (setting [1]), the IC50 was 120 nM. The “Inhibition (%) of sorbitol accumulation” value with sorbitol accumulation (30 mg/kg/day) is 55.8%.
Regarding `O=C1CC2(C(=O)N1)C(=O)N(Cc1ccc(Cl)cc1)C(=O)c1cccn12` (centres unmarked) [Example 7], the 50% inhibitory concentration (IC50) at Aldose reductase (setting [1]) turned out to be 33 nM. Besides, the “Inhibition (%) of sorbitol accumulation” value in the data set with sorbitol accumulation (3.0 mg/kg/day) came to 69.7%; in the data set on sorbitol accumulation (30 mg/kg/day), 104.6%. Also, in the data set with sorbitol accumulation, the “inhibitory activity on sorbitol accumulation relative to (±)-sorbinil” value is reported as “equipotent to or more potent than (±)-sorbinil”.
For `O=C1CC2(C(=O)N1)C(=O)N(Cc1ccc(Br)cc1)C(=O)c1cccn12` (centres unmarked) [Example 8, 2-(4-bromobenzyl)-[1,2,3,4-tetrahydropyrrolo[1,2-a]pyrazine-4-spiro-3'-pyrrolidine]-1,2',3,5'-tetrone], the half-maximal inhibitory concentration (IC50) at Aldose reductase (setting [1]) stood at 47 nM. The “Inhibition (%) of sorbitol accumulation” value in the data set with sorbitol accumulation (3.0 mg/kg/day) was 104.7%. For the same compound, the “inhibitory activity on sorbitol accumulation relative to (±)-sorbinil” value in the data set on sorbitol accumulation was “equipotent to or more potent than (±)-sorbinil”.
As for `O=C1CC2(C(=O)N1)C(=O)N(Cc1ccc(C(F)(F)F)cc1)C(=O)c1cccn12` (centres unmarked) [Example 9], the IC50 on Aldose reductase (setting [1]) came to 80 nM.
Consider `O=C1CC2(C(=O)N1)C(=O)N(Cc1ccc(F)cc1F)C(=O)c1cccn12` (centres unmarked) [Example 10], for which, at Aldose reductase (setting [1]), the IC50 was determined as 72 nM. For the same compound, the “Inhibition (%) of sorbitol accumulation” value was 33.3% with sorbitol accumulation (3.0 mg/kg/day) and 98.0% with sorbitol accumulation (30 mg/kg/day).
For `Cc1ccc(CN2C(=O)c3cccn3C3(CC(=O)NC3=O)C2=O)cc1` (centres unmarked) [Example 11], the IC50 at Aldose reductase (setting [1]) was determined as 52 nM. Further, the “Inhibition (%) of sorbitol accumulation” value in the data set on sorbitol accumulation (30 mg/kg/day) is 65.8%.
In the case of `COc1ccc(CN2C(=O)c3cccn3C3(CC(=O)NC3=O)C2=O)cc1` (centres unmarked) [Example 12], the 50% inhibitory concentration (IC50) on Aldose reductase (setting [1]) stood at 46 nM.
As for `COc1ccc(CN2C(=O)c3cccn3C3(CC(=O)NC3=O)C2=O)cc1OC` (centres unmarked) [Example 13], at Aldose reductase (setting [1]), the IC50 was determined as 110 nM.
Take `O=C1CC2(C(=O)N1)C(=O)N(Cc1ccc([N+](=O)[O-])cc1)C(=O)c1cccn12` (centres unmarked) [Example 15]: on Aldose reductase (setting [1]), the IC50 was found to be 110 nM. Further, the figures for the “Inhibition (%) of sorbitol accumulation” value with sorbitol accumulation (3.0 mg/kg/day) and in the data set with sorbitol accumulation (30 mg/kg/day) were 7.4% and 102.2%, respectively.
Take `O=C1CC2(C(=O)N1)C(=O)N(Cc1ccc(Cl)cc1F)C(=O)c1cccn12` (centres unmarked) [Example 16, 2-(4 chloro 2-fluorobenzyl)-[1,2,3,4-tetrahydropyrrolo[1,2-a]pyrazine-4-spiro-3'-pyrrolidine]-1,2',3,5'-tetrone]: the IC50 on Aldose reductase (setting [1]) amounted to 41 nM. Further, the “Inhibition (%) of sorbitol accumulation” value in the data set on sorbitol accumulation (1.0 mg/kg/day) came out at 61.0%. In addition, in the data set on sorbitol accumulation, the “inhibitory activity on sorbitol accumulation relative to (±)-sorbinil” value was “equipotent to or more potent than (±)-sorbinil”.
For `O=C1CC2(C(=O)N1)C(=O)N(Cc1ccccc1Br)C(=O)c1cccn12` (centres unmarked) [Example 17], at Aldose reductase (setting [1]), the IC50 worked out at 52 nM.
On the same count and under the same terms, under `O=C1CC2(C(=O)N1)C(=O)N(Cc1cccc(Br)c1)C(=O)c1cccn12` (centres unmarked) [Example 18] stands 37 nM; under `O=C1CC2(C(=O)N1)C(=O)N(Cc1ccc(Br)cc1F)C(=O)c1cc(Cl)cn12` (centres unmarked) [Example 19, 2-(4-bromo-2-fluorobenzyl)-7-chloro-[1,2,3,4-tetrahydropyrrolo[1,2-a]pyrazine-4-spiro-3'-pyrrolidine]-1,2',3,5'-tetrone], 50 nM.
On to `O=C1CC2(C(=O)N1)C(=O)N(Cc1ccc(Br)cc1F)C(=O)c1cc(Br)cn12` (centres unmarked) [Example 20, 7-bromo-2-(4-bromo-2-fluorobenzyl)-[1,2,3,4-tetrahydropyrrolo[1,2-a]pyrazine-4-spiro-3'-pyrrolidine]-1,2',3,5'-tetrone], for which, at Aldose reductase (setting [1]), the IC50 was determined as 100 nM.
In the case of `O=C1CC2(C(=O)N1)C(=O)N(Cc1ccc(Cl)c(Cl)c1)C(=O)c1cccn12` (centres unmarked) [Example 24, 2-(3,4-dichlorobenzyl)-[1,2,3,4-tetrahydropyrrolo[1,2-a]pyrazine-4-spiro-3'-pyrrolidine]-1,2',3,5'-tetrone], the IC50 on Aldose reductase (setting [1]) is 23 nM. The “Inhibition (%) of sorbitol accumulation” value in the data set on sorbitol accumulation (1.0 mg/kg/day) was 70.9%; in the data set with sorbitol accumulation (30 mg/kg/day), 111.8%. Further, the “inhibitory activity on sorbitol accumulation relative to (±)-sorbinil” value with sorbitol accumulation is “equipotent to or more potent than (±)-sorbinil”.
On to `O=C1CC2(C(=O)N1)C(=O)N(Cc1ccc(Br)cc1F)C(=O)c1ccc(Br)n12` (centres unmarked) [Example 26, 6-bromo-2-(4-bromo-2-fluorobenzyl)-[1,2,3,4-tetrahydropyrrolo[1,2-a]pyrazine-4-spiro-3'-pyrrolidine]-1,2',3,5'-tetrone], for which, on Aldose reductase (setting [1]), the half-maximal inhibitory concentration (IC50) was determined as 40 nM.
For `O=C1CC2(C(=O)N1)C(=O)N(Cc1ccc(Br)cc1F)C(=O)c1ccc(Cl)n12` (centres unmarked) [Example 27, 2-(4 bromo-2-fluorobenzyl)-6-chloro-[1,2,3,4-tetrahydropyrrolo[1,2-a]pyrazine-4-spiro-3'-pyrrolidine]-1,2',3,5-tetrone], the IC50 on Aldose reductase (setting [1]) was found to be 35 nM.
